Measured values reported in patent publication US12043599B2, “Herbicidal compounds” (SYNGENTA PARTICIPATIONS AG, priority 2018, dated 2024).

Tests used:
Type in all cases: in vivo
Conditions in all cases: 250 g/h, evaluated after 13 days
Avena fatua (AVEFA) [1] = experiment: Pre-emergence herbicidal glasshouse test, percentage damage
Outline: (§1)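 Compounds applied at 250 g/h, formulated in 50:50 acetone/water plus 0.5% Tween 20, onto potted plants one day (pre-emergence) or 8 days (post-emergence) after sowing. Scoring of damage at day 13 used a five-point scale.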

[2] = test system: Alopecurus myosuroides (ALOMY); experiment: as above
Outline: as §1

[3] = test system: Echinochloa crus-galli (ECHCG); experiment: as above
Outline: as §1

Lolium perenne (LOLPE) [4] = experiment: as above
Outline: as §1

Setaria faberi (SETFA) [5] = experiment: as above
Outline: as §1

Avena fatua (AVEFA) [6] = experiment: Post-emergence herbicidal glasshouse test, percentage damage
Outline: as §1

[7] = test system: Alopecurus myosuroides (ALOMY); experiment: as above
Outline: as §1

[8] = test system: Echinochloa crus-galli (ECHCG); experiment: as above
Outline: as §1

Lolium perenne (LOLPE) [9] = experiment: as above
Outline: as §1

Setaria faberi (SETFA) [10] = experiment: as above
Outline: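 Wheat, barley and Setaria faberi were sprayed post-emergence after 8 days' growth (24/16 °C, 14 h light, 65% humidity) with compound in acetone/water (50:50) containing 0.5% Tween 20, at the indicated rates. On wheat, compounds were also applied with cloquintocet-mexyl at 50 g/ha. Damage was scored after 13 days on a five-point scale (5=80-100% to 1=0-19%).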

Structure (SMILES) | AVEFA PRE percentage damage (five point scale) (Avena fatua (AVEFA) [1]) | ALOMY PRE percentage damage (five point scale) [2] | ECHCG PRE percentage damage (five point scale) [3] | LOLPE PRE percentage damage (five point scale) (Lolium perenne (LOLPE) [4]) | SETFA PRE percentage damage (five point scale) (Setaria faberi (SETFA) [5]) | AVEFA POST percentage damage (five point scale) (Avena fatua (AVEFA) [6]) | ALOMY POST percentage damage (five point scale) [7] | ECHCG POST percentage damage (five point scale) [8] | LOLPE POST percentage damage (five point scale) (Lolium perenne (LOLPE) [9]) | SETFA POST percentage damage (five point scale) (Setaria faberi (SETFA) [10])
CC#Cc1cc(C)c(C2C(=O)CC3(CCN(C(=O)c4cccc(C#N)n4)CC3)CC2=O)c(C)c1 [Compound A178] | 5 (5=80-100%) | 4 (4=60-79%) | 4 (4=60-79%) | 5 (5=80-100%) | 5 (5=80-100%) | 5 (5=80-100%) | 5 (5=80-100%) | 5 (5=80-100%) | 5 (5=80-100%) | 5 (5=80-100%)
CC#Cc1cc(C)c(C2C(=O)CC3(CCN(C(=O)C4CCOCC4)CC3)CC2=O)c(C)c1 [Compound A38] | 3 (3=40-59%) | 5 (5=80-100%) | 5 (5=80-100%) | 5 (5=80-100%) | 5 (5=80-100%) | 4 (4=60-79%) | 5 (5=80-100%) | 5 (5=80-100%) | 5 (5=80-100%) | 5 (5=80-100%)
CC#Cc1cc(C)c(C2C(=O)CC3(CCN(S(=O)(=O)CC4COCCO4)CC3)CC2=O)c(C)c1 (centres unmarked) [Compound A39] | 4 (4=60-79%) | 4 (4=60-79%) | 5 (5=80-100%) | 5 (5=80-100%) | 5 (5=80-100%) | 5 (5=80-100%) | 5 (5=80-100%) | 5 (5=80-100%) | 5 (5=80-100%) | 5 (5=80-100%)
CC#Cc1cc(C)c(C2C(=O)CC3(CCN(C(=O)COCCCl)CC3)CC2=O)c(C)c1 [Compound A200] | 4 (4=60-79%) | 5 (5=80-100%) | 5 (5=80-100%) | 5 (5=80-100%) | 5 (5=80-100%) | 5 (5=80-100%) | 5 (5=80-100%) | 5 (5=80-100%) | 5 (5=80-100%) | 5 (5=80-100%)
CC#Cc1cc(C)c(C2=C(OC(=O)OC)CC3(CCN(S(C)(=O)=O)CC3)CC2=O)c(C)c1 [Compound P28] | 5 (5=80-100%) | 5 (5=80-100%) | 5 (5=80-100%) | 5 (5=80-100%) | 5 (5=80-100%) | 5 (5=80-100%) | 5 (5=80-100%) | 5 (5=80-100%) | 5 (5=80-100%) | 5 (5=80-100%)
CC#Cc1cc(C)c(C2=C(OC(=O)c3ccncc3)CC3(CCN(C(=O)c4ccncc4)CC3)CC2=O)c(C)c1 [Compound P4] | 4 (4=60-79%) | 5 (5=80-100%) | 5 (5=80-100%) | 5 (5=80-100%) | 5 (5=80-100%) | 5 (5=80-100%) | 5 (5=80-100%) | 5 (5=80-100%) | 5 (5=80-100%) | 5 (5=80-100%)
CC#Cc1cc(C)c(C2C(=O)CC3(CCN(C(=O)C4=CCCCO4)CC3)CC2=O)c(C)c1 [Compound A182] | 3 (3=40-59%) | 5 (5=80-100%) | 5 (5=80-100%) | 5 (5=80-100%) | 5 (5=80-100%) | 4 (4=60-79%) | 5 (5=80-100%) | 5 (5=80-100%) | 5 (5=80-100%) | 5 (5=80-100%)
CC#Cc1cc(C)c(C2C(=O)CC3(CCN(C(=O)NC(C)C)CC3)CC2=O)c(C)c1 [Compound A152] | 5 (5=80-100%) | 5 (5=80-100%) | 5 (5=80-100%) | 5 (5=80-100%) | 5 (5=80-100%) | 5 (5=80-100%) | 5 (5=80-100%) | 5 (5=80-100%) | 5 (5=80-100%) | 5 (5=80-100%)
CC#Cc1cc(C)c(C2C(=O)CC3(CCN(S(=O)(=O)C4CC4)CC3)CC2=O)c(C)c1 [Compound A82] | 5 (5=80-100%) | 5 (5=80-100%) | 5 (5=80-100%) | 5 (5=80-100%) | 5 (5=80-100%) | 5 (5=80-100%) | 5 (5=80-100%) | 5 (5=80-100%) | 5 (5=80-100%) | 5 (5=80-100%)
CC#Cc1cc(C)c(C2C(=O)CC3(CCN(C(=O)[C@@H](C)OC)CC3)CC2=O)c(C)c1 [Compound A154] | 5 (5=80-100%) | 5 (5=80-100%) | 5 (5=80-100%) | 5 (5=80-100%) | 5 (5=80-100%) | 5 (5=80-100%) | 5 (5=80-100%) | 5 (5=80-100%) | 5 (5=80-100%) | 5 (5=80-100%)
CC#Cc1cc(C)c(C2C(=O)CC3(CCN(C(=O)NC(=O)c4cccnc4)CC3)CC2=O)c(C)c1 [Compound A145] | 2 (2=20-39%) | 3 (3=40-59%) | 5 (5=80-100%) | 4 (4=60-79%) | 5 (5=80-100%) | 5 (5=80-100%) | 5 (5=80-100%) | 5 (5=80-100%) | 5 (5=80-100%) | 5 (5=80-100%)
